Test results taken from paper PMC8318231, “Rate-of-Kill (RoK) assays to triage large compound sets for Chagas disease drug discovery: Application to GSK Chagas Box” (PLoS Neglected Tropical Diseases, 2021).

Assays:
TcCYP51 = conditions: formerly reported; cited from earlier work
[1] = system: T. cruzi intracellular amastigotes in H9c2 cells; experiment: Rate-of-Kill (RoK) high-content imaging assay, amastigotes per cell (AM/CELL) and curve descriptors; format: cell-based, Trypanosoma cruzi; design: key to ME_24h / ME_48h / ME_72h: % reduction in parasite burden (cidal response); t50pct_MCC50 / t50pct_Cmax: unit not given here; conditions: for ME_24h: 24h; for ME_48h: 48h; for ME_72h: 72h; for t50pct_Cmax / tlag_Cmax / t50%_Cmax: at Cmax; for ME_24h (%): maximum effect at 24 h; for ME_24h (%) / ME_48h (%) / ME_72h (%): RoK assay; for ME_48h (%): maximum effect at 48 h; for ME_72h (%): maximum effect at 72 h; for ME 24h (maximum effect at 24 hours, intracellular amastigotes): maximum percentage of parasite burden reduction reached by any concentration
Summary of the method: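 Readouts at each time point are amastigotes per cell and host nuclei count (cytotoxicity), from DRAQ5 high-content imaging. Infection: trypomastigotes on H9c2 at MOI 8 for 18 h. Dosing was 5 μM single point or 11 points, 1/3 steps from 50 μM. Effect scaled between 4 h infected and uninfected controls.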

[2] = system: T. cruzi Tulahuen trypomastigotes; experiment: T. cruzi trypomastigote assay (Cell Titer-Glo viability, ATP luminescence); format: cell-based, Trypanosoma cruzi; conditions: for Trypomastigotes pIC50 48 hours: 48 hours incubation; for Trypomastigotes pIC50 48 hours / Trypomastigotes pIC50 72 hours: pIC50 = -log10 IC50 in molar units; for Trypomastigotes pIC50 72 hours: 72 hours incubation; for 72 pIC50: 72 h
Summary of the method: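 Compounds were tested in dose response or once at a final 5 μM against 5 × 10^4 trypomastigotes per well (DMEM, 2% FBS), collected on days 5–8 from LLC-MK2 infected cultures. ATP luminescence via CellTiter-Glo reports live parasites; DMSO defines 0% and cell-free wells 100% effect.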

For `CN(Cc1ccc(C(N)=O)cc1)C(c1ccc(F)cc1)c1cccnc1` (stereo not drawn) [TCMDC-143504], the “CYP51 pIC50” value (TcCYP51) is given as 7, the ME_24h ([1]; figure 5) is given as -95.1621 and the ME_48h ([1]; figure 5) is given as -135.708. For the same molecule, the ME_72h ([1]; figure 5) was 0.6882, the “MCCE” value ([1]; RoK curve descriptor) was 0.6 µM and the “AM/CELL NORM” value ([1]; Time 4, sheet figure 4 A) was 2.577. The “AM/CELL NORM” value ([1]; Time 24, sheet figure 4 A) was -143.385, the “AM/CELL NORM” value ([1]; Time 48, sheet figure 4 A) was -163.001 and the “AM/CELL NORM” value ([1]; Time 72, sheet figure 4 A) was -44.3312. The t50pct_Cmax ([1]; figure 5) was 72, the tlag_Cmax ([1]; figure 5) was 48 and the t50pct_MCC50 ([1]; at MCC50, figure 5) was 72. For the same molecule, the tlag_MCC50 ([1]; at MCC50, figure 5) was 72, the MCC50 ([1]; figure 5) was 50 µM and the MCCE ([1]; figure 5) was 0.6173. The “ME_24h (%)” value [1] was -95.2%, the “ME_48h (%)” value [1] was -135.7% and the “ME_72h (%)” value [1] was 0.7%. For the same molecule, the “ME 24h (maximum effect at 24 hours, intracellular amastigotes)” value (“ME 24h” below) [1] was -95.1621%, the “Trypomastigotes pIC50 48 hours” value [2] was less than 4.3 and the “Trypomastigotes pIC50 72 hours” value [2] was less than 4.3. For the same molecule, the “72 pIC50 (trypomastigotes, raw data of Fig 1D)” value ([2]; 72 hours, plotted values, censored values given without sign) was less than 4.3, the “48 pIC50” value ([2]; trypomastigote assay, 48 h, figure 1A) was less than 4.3 and the “72 pIC50” value ([2]; trypomastigote assay, figure 1A) was less than 4.3. The “72 pIC50” value ([2]; trypomastigote assay, figure 1B) was less than 4.3.

In the case of `CCC(=O)Nc1ccc(-c2nc3ccc(Cl)cc3[nH]2)cc1` [TCMDC-143135], the “CYP51 pIC50” value (TcCYP51) is listed as less than 4, the ME_24h ([1]; figure 5) is listed as 52.1566 and the ME_48h ([1]; figure 5) is listed as 46.9478. For the same molecule, the ME_72h ([1]; figure 5) was 38.7036, the “MCCE” value ([1]; RoK curve descriptor) was 5.6 µM and the “AM/CELL NORM” value ([1]; Time 4, sheet figure 4 A) was -141.214. The “AM/CELL NORM” value ([1]; Time 24, sheet figure 4 A) was -21.5946, the “AM/CELL NORM” value ([1]; Time 48, sheet figure 4 A) was -76.5792 and the “AM/CELL NORM” value ([1]; Time 72, sheet figure 4 A) was -95.9437. The “tlag_Cmax” value [1] was 4.0 h, the t50pct_Cmax ([1]; figure 5) was 72 and the tlag_Cmax ([1]; figure 5) was 4. The “t50%_MCC50” value ([1]; at MCC50) was 24.0 h, the “tlag_MCC50” value ([1]; at MCC50) was 4.0 h and the t50pct_MCC50 ([1]; at MCC50, figure 5) was 24. The tlag_MCC50 ([1]; at MCC50, figure 5) was 4, the MCCE ([1]; figure 5) was 5.556 and the “ME_24h (%)” value [1] was 52.2%. The “ME_48h (%)” value [1] was 47.0%, the “ME_72h (%)” value [1] was 38.7% and the “ME 24h” value [1] was 52.1566%. The “Trypomastigotes pIC50 48 hours” value [2] was 5.3 and the “Trypomastigotes pIC50 72 hours” value [2] was 5.4.

For `Cn1cc(CN2CCN(c3ccc4c(c3)CCN(C(=O)[C@H]3C[C@@H]3c3ccccc3)CC4)CC2)cn1` [TCMDC-143537], the “CYP51 pIC50” value (TcCYP51) is given as 4.8, the ME_24h ([1]; figure 5) is given as 33.1689 and the ME_48h ([1]; figure 5) is given as 35.5175. For the same molecule, the ME_72h ([1]; figure 5) was 52.5957, the “MCC50” value ([1]; RoK curve descriptor) was 16.7 µM and the “MCCE” value ([1]; RoK curve descriptor) was 0.6 µM. For the same molecule, the “AM/CELL NORM” value ([1]; Time 4, sheet figure 4 A) was 1.751, the “AM/CELL NORM” value ([1]; Time 24, sheet figure 4 A) was 33.1689 and the “AM/CELL NORM” value ([1]; Time 48, sheet figure 4 A) was 30.0543. The “AM/CELL NORM” value ([1]; Time 72, sheet figure 4 A) was 50.1418, the “t50%_Cmax” value [1] was 72.0 h and the “tlag_Cmax” value [1] was 4.0 h. For the same molecule, the t50pct_Cmax ([1]; figure 5) was 72, the tlag_Cmax ([1]; figure 5) was 4 and the “t50%_MCC50” value ([1]; at MCC50) was 72.0 h. The “tlag_MCC50” value ([1]; at MCC50) was 24.0 h, the t50pct_MCC50 ([1]; at MCC50, figure 5) was 72 and the tlag_MCC50 ([1]; at MCC50, figure 5) was 24. For the same molecule, the MCCE ([1]; figure 5) was 0.6173, the MCC50 ([1]; figure 5, in µM) was 16.6667 and the “ME_24h (%)” value [1] was 33.2%. For the same molecule, the “ME_48h (%)” value [1] was 35.5%, the “ME_72h (%)” value [1] was 52.6% and the “ME 24h” value [1] was 33.1689%. For the same molecule, the “Trypomastigotes pIC50 48 hours” value [2] was 5 and the “Trypomastigotes pIC50 72 hours” value [2] was 4.9.

In the case of `COc1cccc(C(=O)[C@H]2C[C@@H]2CN(Cc2cccnc2)Cc2cccnc2)c1` [TCMDC-143593], the “CYP51 pIC50” value (TcCYP51) is given as 7.2, the ME_24h ([1]; figure 5) is given as -243.773 and the ME_48h ([1]; figure 5) is given as -91.7284. For the same molecule, the ME_72h ([1]; figure 5) was 36.534, the “MCCE” value ([1]; RoK curve descriptor) was 0.02 µM and the “AM/CELL NORM” value ([1]; Time 4, sheet figure 4 A) was -1.514. For the same molecule, the “AM/CELL NORM” value ([1]; Time 24, sheet figure 4 A) was -270.363, the “AM/CELL NORM” value ([1]; Time 48, sheet figure 4 A) was -91.7284 and the “AM/CELL NORM” value ([1]; Time 72, sheet figure 4 A) was -0.04888. The “tlag_Cmax” value [1] was 24.0 h, the t50pct_Cmax ([1]; figure 5) was 72 and the tlag_Cmax ([1]; figure 5) was 24. The t50pct_MCC50 ([1]; at MCC50, figure 5) was 72, the tlag_MCC50 ([1]; at MCC50, figure 5) was 72 and the MCC50 ([1]; figure 5) was 50 µM. For the same molecule, the MCCE ([1]; figure 5) was 0.02286, the “ME_24h (%)” value [1] was -243.8% and the “ME_48h (%)” value [1] was -91.7%. The “ME_72h (%)” value [1] was 36.5%, the “ME 24h” value [1] was -243.773% and the “Trypomastigotes pIC50 48 hours” value [2] was 5.2. For the same molecule, the “Trypomastigotes pIC50 72 hours” value [2] was less than 4.3.

For `CN(C)Cc1ccc(N2CCC(NS(=O)(=O)c3ccc(Cl)cc3)CC2)cc1` [TCMDC-143623], the “CYP51 pIC50” value (TcCYP51) is listed as less than 4, the “ME (maximum effect) in RoK assay (in words)” value [1] is listed as “positive ME throughout all times” and the “cidality in the RoK assay (in words)” value [1] is listed as “cidal”. The “tlag (in words)” value [1] was “short tlag times”, the ME_24h ([1]; figure 5) was -87.7558 and the ME_48h ([1]; figure 5) was -504.665. The ME_72h ([1]; figure 5) was -765.031, the “MCC50” value ([1]; RoK curve descriptor) was 1.9 µM and the “MCCE” value ([1]; RoK curve descriptor) was 1.0 µM. For the same molecule, the “AM/CELL NORM” value ([1]; Time 4, figure 4 A) was -0.7307, the “AM/CELL NORM” value ([1]; Time 24, figure 4 A) was -44.6697 and the “AM/CELL NORM” value ([1]; Time 48, figure 4 A) was 60.0074. For the same molecule, the “AM/CELL NORM” value ([1]; Time 72, figure 4 A) was 92.6225, the “t50%_Cmax” value [1] was 60.0 h and the “tlag_Cmax” value [1] was 38.0 h. The t50pct_Cmax ([1]; figure 5) was 60, the tlag_Cmax ([1]; figure 5) was 38 and the “t50%_MCC50” value ([1]; at MCC50) was 72.0 h. The “tlag_MCC50” value ([1]; at MCC50) was 24.0 h, the t50pct_MCC50 ([1]; at MCC50, figure 5) was 72 and the tlag_MCC50 ([1]; at MCC50, figure 5) was 48. For the same molecule, the MCCE ([1]; figure 5) was 1.029, the MCC50 ([1]; figure 5, in µM) was 25.9259 and the “ME_24h (%)” value [1] was -87.8%. For the same molecule, the “ME_48h (%)” value [1] was -504.7%, the “ME_72h (%)” value [1] was -765.0% and the “ME 24h” value [1] was 25.2228%. For the same molecule, the “activity in trypomastigotes assay (in words)” value ([2]; 48 and 72 hours) was “poorly active”, the “Trypomastigotes pIC50 48 hours” value [2] was 4.5 and the “Trypomastigotes pIC50 72 hours” value [2] was 4.4.
